Laboratory results from patent publication US7923465B2, “Cannabinoid receptor ligands, pharmaceutical compositions containing them, and process for their preparation” (priority 2005, dated 2011).
Like-named read-outs stand apart in the source and are kept apart here.

Key:
[1] = molecular target: hCB2 (Homo sapiens, UniProt P34972); test: In vitro binding assay using hCB2-CHO membranes, [3H]-CP-55,940 displacement (Protocol IV); design: expressed in transfected cells; host or cells: CHO (hCB2-CHO, generated in-house); conditions: 1 h, read-out: % Displacement Protocol IV
hCB2, sequence (P34972 whole entry): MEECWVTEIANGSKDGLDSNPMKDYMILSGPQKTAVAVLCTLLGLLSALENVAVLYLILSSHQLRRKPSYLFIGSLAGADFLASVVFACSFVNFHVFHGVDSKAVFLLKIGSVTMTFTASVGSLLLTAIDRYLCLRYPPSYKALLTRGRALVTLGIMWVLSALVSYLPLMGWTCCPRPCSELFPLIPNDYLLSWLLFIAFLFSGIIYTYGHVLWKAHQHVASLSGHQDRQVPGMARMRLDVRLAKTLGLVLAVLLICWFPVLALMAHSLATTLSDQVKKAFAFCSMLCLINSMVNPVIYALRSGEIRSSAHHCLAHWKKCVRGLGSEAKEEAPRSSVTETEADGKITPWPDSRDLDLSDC
Method: IV. Protocol for In Vitro Assay Using hCB2-CHO Membranes:
In this assay, [^3H]-CP-55,940 was used as the radioligand to bind human CB2 receptor expressed on the membranes from CHO cells (hCB2-CHO cell line was generated in-house) which can be displaced by unlabeled ligands having affinity to the CB2 receptor.
The assay was performed according to the modified method of Ross et al., 1999 (Br. J. Pharmacol. 128, 735-743). The reaction was set up in a total volume of 200 μl in PEI (0.2%) precoated Millipore GFB filter plates. 1 mM stocks of test compounds were prepared in DMSO and tested at a final concentration of 300 nM. The non-specific binding was determined by 0.5 μM CP-55, 940. The total reaction mixture contained Tris-BSA buffer (50 mM Tris, 5 mM MgCl2, 1 mM EDTA, pH 7.4 with 0.1% BSA), unlabelled CP-55, 940 (0.5 μM) or test samples, [^3H]-CP-55, 940 (0.75 nM) and 25-50 μg of human CB2 receptor preparation. The assay mixture (with or without the test compound) was incubated at 30° C. for 1 hour. The reaction was stopped by rapid filtration under vacuum and the radioactivity on the filters was measured by liquid scintillation counting.
The percent (%) displacement by a test ligand was calculated by comparing the specific bound values.

[2] = hCB2-CHO membranes, [3H]-CP-55,940 displacement

`O=C(NCc1cccnc1)c1nn(-c2ccc(Cl)cc2)c2c1C1CC3CC(C1)CC2C3` [Example 104, N(7)-(3-Pyridylmethyl)-5-(4-chlorophenyl)-5,6-diazatetracyclo[7.3.1.1^3,11.0^4,8]tetradeca-4(8),6-diene-7-carboxamide] gave an inhibition at 0.3 µM [1, 2] of 20.2% and a melting point of 180 °C.
`O=C(NCc1ccncc1)c1nn(-c2ccc(Cl)cc2)c2c1C1CC3CC(C1)CC2C3` [Example 105, N(7)-(4-Pyridylmethyl)-5-(4-chlorophenyl)-5,6-diazatetracyclo[7.3.1.1^3,11.0^4,8]tetradeca-4(8),6-diene-7-carboxamide] gave an inhibition at 0.3 µM [1, 2] of 22.4% and a melting point of 167 to 168 °C.
`O=C(NCc1ccc(F)cc1F)c1nn(-c2ccc(Cl)cc2)c2c1C1CC3CC(C1)CC2C3` [Example 114, N(7)-(2,4-Difluorobenzyl)-5-(4-chlorophenyl)-5,6-diazatetracyclo[7.3.1.1^3,11.0^4,8]tetradeca-4(8),6-diene-7-carboxamide] showed an inhibition at 0.3 µM [1] of 31.7% and a melting point of 185 °C.
In the case of `C[C@@H](NC(=O)c1nn(-c2ccc(F)cc2F)c2c1C1CC3CC(C1)CC2C3)c1ccccc1` [Example 147, N(7)-(R-1-phenylethyl)-5-(2,4-difluorophenyl)-5,6-diazatetracyclo[7.3.1.1^3,11.0^4,8]tetradeca-4(8),6-diene-7-carboxamide], the inhibition at 0.3 µM [1] was 37.1% and the melting point was 123 to 128 °C.
Work on `CC(C)(NC(=O)c1nn(-c2ccc(F)cc2F)c2c1C1CC3CC(C1)CC2C3)c1ccccc1` [Example 148, N(7)-(1-Methyl-1-phenylethyl)-5-(2,4-difluorophenyl)-5,6-diazatetracyclo[7.3.1.1^3,11.0^4,8]tetradeca-4(8),6-diene-7-carboxamide] yielded an inhibition at 0.3 µM [1] of 79.2% and a melting point of 150 to 152 °C.
In the case of `CC[C@H](NC(=O)c1nn(-c2ccc(F)cc2F)c2c1C1CC3CC(C1)CC2C3)c1ccccc1` [Example 152, N(7)-[(S)-1-Phenylpropyl]-5-(2,4-difluorophenyl)-5,6-diazatetracyclo[7.3.1.1^3,11.0^4,8]tetradeca-4(8),6-diene-7-carboxamide], the inhibition at 0.3 µM [1] was 60.3% and the melting point was 127 to 129 °C.
In the case of `CC(C)(NC(=O)c1nn(-c2ccc(F)cc2F)c2c1C1CC3CC(C1)CC2C3)c1ccccc1Cl` [Example 153, N7-[1-(2-Chlorophenyl)-1-methylethyl]-5-(2,4-difluorophenyl)-5,6-diazatetracyclo[7.3.1.1^3,11.0^4,8]tetradeca-4(8),6-diene-7-carboxamide], the inhibition at 0.3 µM [1, 2] was 99.5% and the melting point was 145 to 147 °C.
For `O=C(NC12CC3CC(CC(O)(C3)C1)C2)c1nn(-c2ccc(F)cc2F)c2c1C1CC3CC(C1)CC2C3` [Example 156, N7-(3-Hydroxyadamantan-1-yl)-5-(2,4-difluorophenyl)-5,6-diazatetracyclo[7.3.1.1^3,11.0^4,8]tetradeca-4(8),6-diene-7-carboxamide], the inhibition at 0.3 µM [1] was 89.3% and the melting point was 240 to 243 °C.
Compound `CC(C)(NC(=O)c1nn(-c2ccc(F)cc2)c2c1C1CC3CC(C1)CC2C3)c1ccccc1` [Example 157, N(7)-(1-Methyl-1-phenylethyl)-5-(4-fluorophenyl)-5,6-diazatetracyclo[7.3.1.1^3,11.0^4,8]tetradeca-4(8),6-diene-7-carboxamide] has an inhibition at 0.3 µM [1] of 88.5% and a melting point of 180 to 182 °C.
Compound `CC12CCC(C1)C(C)(C)C2NC(=O)c1nn(-c2ccc(F)cc2)c2c1C1CC3CC(C1)CC2C3` (stereo not shown) [Example 159, N7-(1,3,3-Trimethylbicyclo[2.2.1]hept-2-yl)-5-(4-fluorophenyl)-5,6-diazatetracyclo[7.3.1.1^3,11.0^4,8]tetradeca-4(8),6-diene-7-carboxamide] has an inhibition at 0.3 µM [1] of 97.7% and a melting point of 139 to 141 °C.
Work on `COc1ccc(-n2nc(C(=O)NN3CCCCC3)c3c2C2CC4CC(CC3C4)C2)cc1` [Example 163, N(7)-Piperidino-5-(4-methoxyphenyl)-5,6-diazatetracyclo[7.3.1.1^3,11.0^4,8]tetradeca-4(8),6-diene-7-carboxamide] yielded an inhibition at 0.3 µM [1, 2] of 14.5% and a melting point of 156 °C.
Work on `O=C(NC1C2CC3CC(C2)CC1C3)c1nn(-c2ccc(F)cc2)c2c1C1CCC2C1` (stereo not shown) [Example 281, N5-(Adamantan-2-yl)-3-(4-fluorophenyl)-3,4-diazatricyclo[5.2.1.0^2,6]deca-2(6),4-diene-5-carboxamide] yielded an inhibition at 0.3 µM [1] of 97.1% and a melting point of 196 to 198 °C.
With `CC(C)(NC(=O)c1nn(-c2ccc(F)cc2)c2c1C1CCC2C1)c1ccccc1` (stereo not shown) [Example 282, N5-(1-Methyl-1-phenylethyl)-3-(4-fluorophenyl)-3,4-diazatricyclo[5.2.1.0^2,6]deca-2(6),4-diene-5-carboxamide] the inhibition at 0.3 µM [1] was 92.3% and the melting point was 119 to 122 °C.
With `O=C(NC12CC3CC(CC(C3)C1)C2)c1nn(-c2ccc(F)cc2)c2c1C1CCC2C1` (stereo not shown) [Example 283, N5-(Adamantan-1-yl)-3-(4-fluorophenyl)-3,4-diazatricyclo[5.2.1.0^2,6]deca-2(6),4-diene-5-carboxamide] the inhibition at 0.3 µM [1] was 94.8% and the melting point was 189 to 191 °C.
`O=C(NCC1CCCCC1)c1nn(-c2ccc(F)cc2F)c2c1C1CCC2C1` (stereo not shown) [Example 291, N(3)-(Cyclohexylmethyl)-1-(2,4-difluorophenyl)-4,5,6,7-tetrahydro-1H-4,7-methano-indazole-3-carboxamide] showed a melting point of 94 to 97 °C.
Work on `C[C@@H](NC(=O)c1nn(-c2ccc(F)cc2F)c2c1C1CCC2C1)c1ccccc1` (stereo partly shown) [Example 293, N(3)-(R-1-phenylethyl)-1-(2,4-difluorophenyl)-4,5,6,7-tetrahydro-1H-4,7-methano-indazole-3-carboxamide] yielded a melting point of 40 to 45 °C.
For `CC(C)(NC(=O)c1nn(-c2ccc(F)cc2F)c2c1C1CCC2C1)c1ccccc1Cl` (stereo not shown) [Example 295, N5-[1-(2-Chlorophenyl)-1-methylethyl]-3-(2,4-difluorophenyl)-3,4-diazatricyclo[5.2.1.0^2,6]deca-2(6),4-diene-5-carboxamide], the inhibition at 0.3 µM [1] was 100% and the melting point was 176 to 179 °C.
For `CC12CCC(C1)C(C)(C)C2NC(=O)c1nn(-c2ccc(F)cc2F)c2c1C1CCC2C1` (stereo not shown) [Example 296, N(3)-(1,3,3-Trimethylbicyclo[2.2.1]hept-2-yl)-1-(2,4-difluorophenyl)-4,5,6,7-tetrahydro-1H-4,7-methano-indazole-3-carboxamide], the inhibition at 0.3 µM [1] was 95.9% and the melting point was 114 to 117 °C.
For `O=C(NCc1ccc(Cl)cc1)c1nn(-c2ccc(F)cc2F)c2c1C1CCC2C1` (stereo not shown) [Example 298, N5-(4-Chlorobenzyl)-3-(2,4-difluorophenyl)-3,4-diazatricyclo[5.2.1.0^2,6]deca-2(6),4-diene-5-carboxamide], the inhibition at 0.3 µM [1, 2] was 11.2% and the melting point was 121 to 125 °C.
With `CCC(CC)(NC(=O)c1nn(-c2ccc(F)cc2F)c2c1C1CCC2C1)c1ccccc1` (stereo not shown) [Example 299, N5-(1-Ethyl-1-phenylpropyl)-3-(2,4-difluorophenyl)-3,4-diazatricyclo[5.2.1.0^2,6]deca-2(6),4-diene-5-carboxamide] the inhibition at 0.3 µM [1] was 77.6% and the melting point was 45 to 48 °C.
With `CC[C@H](NC(=O)c1nn(-c2ccc(F)cc2F)c2c1C1CCC2C1)c1ccccc1` (stereo partly drawn) [Example 300, N5-[(1S)-1-Phenylpropyl]-3-(2,4-difluorophenyl)-3,4-diazatricyclo[5.2.1.0^2,6]deca-2(6),4-diene-5-carboxamide] the inhibition at 0.3 µM [1] was 90.1% and the melting point was 100 to 103 °C.
In the case of `O=C(NC1(c2ccccc2)CC1)c1nn(-c2ccc(F)cc2F)c2c1C1CCC2C1` (stereo not shown) [Example 308, N5-(1-phenylcyclopropyl)-3-(2,4-difluorophenyl)-3,4-diazatricyclo[5.2.1.0^2,6]deca-2(6),4-diene-5-carboxamide], the inhibition at 0.3 µM [1] was 86.6% and the melting point was 90 °C.
`O=C(NC1C2CC3CC(C2)CC1C3)c1nn(-c2ccc(F)cc2F)c2c1C1CCC2C1` (stereo not shown) [Example 309, N5-(2-Adamantyl)-3-(2,4-difluorophenyl)-3,4-diazatricyclo[5.2.1.0^2,6]deca-2(6),4-diene-5-carboxamide] gave an inhibition at 0.3 µM [1] of 98.5% and a melting point of 159 to 161 °C.
`CC1(NC(=O)c2nn(-c3ccc(F)cc3F)c3c2C2CCC3C2)C2CC3CC(C2)CC1C3` (stereo not shown) [Example 310, N5-(2-Methyl-2-adamantyl)-3-(2,4-difluorophenyl)-3,4-diazatricyclo[5.2.1.0^2,6]deca-2(6),4-diene-5-carboxamide] showed an inhibition at 0.3 µM [1] of 94.2% and a melting point of 60 °C.
Work on `CCC(C)(C)NC(=O)c1nn(-c2ccc(F)cc2F)c2c1C1CCC2C1` (stereo not shown) [Example 313, N(3)-(tert-Pentyl)-1-(2,4-difluorophenyl)-4,5,6,7-tetrahydro-1H-4,7-methano-indazole-3-carboxamide] yielded an inhibition at 0.3 µM [1] of 98.2% and a melting point of 78 to 80 °C.
`CC12CCC(c3c(C(=O)Nc4ccccc4)nn(-c4ccc(Cl)cc4Cl)c31)C2(C)C` (stereo not shown) [Example 401, N(3)-Phenyl-1-(2,4-dichlorophenyl)-7,8,8-trim ethyl-4,5,6,7-tetrahydro-1H-4,7-methano-indazole-3-carboxamide] gave a melting point of 112 to 115 °C.
